Test results reported in PubChem BioAssay (NCI).
Where “and” joins values, the source holds several entries; their conditions need not be identical. Identical values can stand only once.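 All cell lines were grown in 96-well plates and treated with compound for 48 hours. GI50 is the concentration that inhibits growth by half. Definition used: TGI = concentration required for complete inhibition of growth.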

How the values were obtained:
Assay in all cases: growth of human tumour cells (NCI), 48 h
[1] = system: SN12C renal
[2] = system: OVCAR-8 ovarian
[3] = system: EKVX NSCLC
[4] = system: TK-10 renal
[5] = system: SF-268 CNS
[6] = system: SNB-19 CNS
[7] = system: CCRF-CEM leukemia
[8] = system: SK-MEL-28 melanoma
[9] = system: OVCAR-5 ovarian
[10] = system: MALME-3M melanoma

Structure (SMILES): O=C(O)Cc1ccccc1
- GI50 [1]: > 1000 µM
- TGI [1]: > 2000 µM
- GI50 [2]: > 1000 µM
- TGI [2]: > 2000 µM
- GI50 [3]: > 1000 µM
- TGI [3]: > 2000 µM
- GI50 [4]: > 1000 µM
- TGI [4]: > 2000 µM
- GI50 [5]: > 1000 µM
- TGI [5]: > 2000 µM
- GI50 [6]: > 1000 µM
- TGI [6]: > 2000 µM
- GI50 [7]: > 1000 µM
- TGI [7]: > 2000 µM
- GI50 [8]: > 1000 µM
- TGI [8]: > 2000 µM
- GI50 [9]: > 1000 µM
- TGI [9]: > 2000 µM
- GI50 [10]: > 1000 µM
- TGI [10]: > 1000 µM and 1970 µM

Structure (SMILES): C/C=C(\C)C(=O)O[C@@H]1C=CC(=O)O[C@H]1COC(=O)[C@H](C)O
- GI50 [1]: 14.5 µM
- TGI [1]: 30.2 µM
- GI50 [2]: 18.1 µM
- TGI [2]: > 100 µM
- GI50 [3]: 19 µM
- TGI [3]: 42.1 µM
- GI50 [4]: 13 µM
- TGI [4]: 25.8 µM
- GI50 [5]: 3.72 µM
- TGI [5]: 19.5 µM
- GI50 [6]: 19.8 µM
- TGI [6]: 56 µM
- GI50 [7]: 0.733 µM
- TGI [7]: 17 µM
- GI50 [8]: 12.4 µM
- TGI [8]: 27.9 µM
- GI50 [9]: 15.3 µM
- TGI [9]: 31.5 µM
- GI50 [10]: 12.1 µM
- TGI [10]: 25.9 µM

Structure (SMILES): CN(C)CC1CCCC(CN(C)C)C1=O (stereo unspecified)
- GI50 [1]: 2.58 µM and 7.36 µM
- TGI [1]: 5.78 µM and 18.4 µM
- TGI [2]: 5.86 µM and 10.6 µM
- TGI [3]: 17.8 µM and 14.1 µM
- GI50 [4]: 2.81 µM and 0.861 µM
- TGI [4]: 7.88 µM and 2.63 µM
- GI50 [5]: 11.5 µM and 23.4 µM
- TGI [5]: 31.7 µM and 65.6 µM
- TGI [6]: 68 µM and > 65.4 µM
- GI50 [7]: 0.155 µM and 0.0588 µM
- TGI [7]: 0.559 µM and 0.21 µM
- GI50 [8]: 2.17 µM and 18.3 µM
- TGI [8]: 5.21 µM and 33.8 µM
- TGI [9]: 32.7 µM and 33.7 µM
- GI50 [10]: 0.653 µM and 2.61 µM
- TGI [10]: 1.61 µM and 6.54 µM

Structure (SMILES): CCOc1ccc(NC(=O)/C(=C/c2ccccc2)C(C)=O)cc1
- TGI [1]: 35 µM
- TGI [2]: 43.1 µM
- TGI [3]: 35.4 µM
- TGI [4]: 32.9 µM
- TGI [5]: 30.7 µM
- TGI [6]: 24.9 µM
- TGI [7]: 10.5 µM
- TGI [8]: 26 µM
- TGI [9]: 36.5 µM
- TGI [10]: 31.6 µM

Structure (SMILES): C#CCSc1nnnn1-c1ccc(Br)c(C)c1
- GI50 [1]: 19.1 µM
- TGI [1]: > 100 µM
- GI50 [2]: 20.3 µM
- TGI [2]: > 100 µM
- GI50 [3]: 4.86 µM
- TGI [3]: 97.3 µM
- GI50 [4]: 35.4 µM
- TGI [4]: > 100 µM
- GI50 [5]: 24.6 µM
- TGI [5]: > 100 µM
- GI50 [6]: 74 µM
- TGI [6]: > 100 µM
- GI50 [7]: 29.5 µM
- TGI [7]: > 100 µM
- GI50 [8]: 50.1 µM
- TGI [8]: > 100 µM
- GI50 [9]: 69.4 µM
- TGI [9]: > 100 µM
- GI50 [10]: 27.2 µM
- TGI [10]: 71.8 µM

Structure (SMILES): COc1ccccc1NS(=O)(=O)c1cc(C(C)(C)C)ccc1OCCOc1ccc(C(C)(C)C)cc1S(=O)(=O)Nc1ccccc1OC
- TGI [1]: > 100 µM
- TGI [2]: > 100 µM
- TGI [3]: > 100 µM
- TGI [4]: > 100 µM
- TGI [5]: > 100 µM
- TGI [6]: > 100 µM
- TGI [7]: > 100 µM
- TGI [8]: > 100 µM
- TGI [9]: > 100 µM
- TGI [10]: > 100 µM

Structure (SMILES): CCOC(=O)C1=C(O)CSC1=Nc1ccc(N=C2SCC(O)=C2C(=O)OCC)cc1
- TGI [1]: 71.8 µM
- TGI [2]: > 100 µM
- TGI [3]: 96.7 µM
- TGI [4]: 94.7 µM
- TGI [5]: 52.4 µM
- TGI [6]: > 100 µM
- TGI [7]: > 100 µM
- TGI [8]: 40.8 µM
- TGI [9]: 54 µM
- TGI [10]: 40.4 µM

Structure (SMILES): COc1ccc(C2=NN(c3ccc(S(N)(=O)=O)cc3)C(c3ccc(Cl)cc3)C2)c(O)c1 (stereo unspecified)
- GI50 [1]: 5.09 µM
- TGI [1]: 18.3 µM
- GI50 [2]: 4.74 µM
- TGI [2]: 44.4 µM
- GI50 [3]: 2.71 µM
- TGI [3]: 10.5 µM
- GI50 [4]: 2.49 µM
- TGI [4]: 9.02 µM
- GI50 [5]: 5.7 µM
- TGI [5]: 25.5 µM
- GI50 [6]: 10.8 µM
- TGI [6]: 65.1 µM
- GI50 [7]: 2.39 µM
- TGI [7]: 6.92 µM
- GI50 [8]: 5.06 µM
- TGI [8]: 18.1 µM
- GI50 [9]: 9.44 µM
- TGI [9]: 29.3 µM
- GI50 [10]: 4.03 µM
- TGI [10]: 16.7 µM

Structure (SMILES): O=C(Nc1ccc(Cl)cc1)C(=O)C1=C(O)c2ccccc2OC1
- TGI [1]: > 100 µM
- TGI [2]: > 100 µM
- TGI [3]: > 100 µM
- TGI [4]: > 100 µM
- TGI [5]: > 100 µM
- TGI [6]: > 100 µM
- TGI [7]: > 100 µM
- TGI [8]: > 100 µM
- TGI [9]: > 100 µM
- TGI [10]: > 100 µM

Structure (SMILES): COc1ccc(C(=O)Nc2ccccc2C#N)cc1
- TGI [1]: > 100 µM
- TGI [2]: > 100 µM
- TGI [3]: > 100 µM
- TGI [4]: > 100 µM
- TGI [5]: > 100 µM
- TGI [6]: > 100 µM
- TGI [7]: > 100 µM
- TGI [8]: > 100 µM
- TGI [9]: > 100 µM
- TGI [10]: > 100 µM

Structure (SMILES): C[C@@H](Oc1cc(-n2cnc3ccc(OCC4CCN(C)CC4)cc32)sc1C(N)=O)c1ccccc1C(F)(F)F
- GI50 [1]: 0.319 µM
- TGI [1]: 4.28 µM
- GI50 [2]: 0.0896 µM
- TGI [2]: 2.85 µM
- GI50 [3]: 0.653 µM
- TGI [3]: 5.04 µM
- GI50 [4]: 0.427 µM
- TGI [4]: 3.98 µM
- GI50 [5]: 0.14 µM
- TGI [5]: 3.86 µM
- GI50 [6]: 0.163 µM
- TGI [6]: 4.56 µM
- GI50 [7]: 0.0673 µM
- TGI [7]: 3.3 µM
- GI50 [8]: 0.637 µM
- TGI [8]: 4.58 µM
- GI50 [9]: 0.114 µM
- TGI [9]: 3.81 µM
- GI50 [10]: 2.79 µM
- TGI [10]: 6.97 µM

Structure (SMILES): Fc1cccc(C=NC23CC4CC(CC(C4)C2)C3)c1
- TGI [1]: > 100 µM
- TGI [2]: > 100 µM
- TGI [3]: > 100 µM
- TGI [4]: > 100 µM
- TGI [5]: > 100 µM
- TGI [6]: > 100 µM
- TGI [7]: > 100 µM
- TGI [8]: > 100 µM
- TGI [9]: > 100 µM
- TGI [10]: > 100 µM

Structure (SMILES): CC1OC(OC2C(OC3CCC4(C)C(CCC5(C)C4CC=C4C6CC(C)(C)CCC6(CO)C(O)CC45C)C3(C)C)OC(C(=O)O)C(OC3OC(COC4OC(CO)C(O)C(O)C4O)C(O)C(O)C3O)C2O)C(O)C(O)C1O (stereo unspecified)
- GI50 [1]: 2.46 µM
- TGI [1]: 9.19 µM
- GI50 [2]: 13.5 µM
- TGI [2]: 28.5 µM
- GI50 [3]: 2.41 µM
- TGI [3]: 11.5 µM
- GI50 [4]: 16.1 µM
- TGI [4]: 28.4 µM
- GI50 [5]: 13.1 µM
- TGI [5]: 27.1 µM
- GI50 [6]: 13.9 µM
- TGI [6]: 28 µM
- GI50 [7]: 3.88 µM
- TGI [7]: 20.7 µM
- GI50 [8]: 1.96 µM
- TGI [8]: 9.02 µM
- GI50 [9]: 5.17 µM
- TGI [9]: 16.7 µM
- GI50 [10]: 7.58 µM
- TGI [10]: 18.8 µM

Structure (SMILES): Cc1ccc(NC(=O)CCC(=O)C2CC(=O)CCC2=O)cc1C (stereo unspecified)
- TGI [1]: > 100 µM
- TGI [2]: > 100 µM
- TGI [3]: > 100 µM
- TGI [4]: > 100 µM
- TGI [5]: > 100 µM
- TGI [6]: > 100 µM
- TGI [7]: > 100 µM
- TGI [8]: > 100 µM
- TGI [9]: > 100 µM
- TGI [10]: > 100 µM

Structure (SMILES): COc1cc2nc(-c3ccc(Cl)cc3)cc(OCCCN3CCC(O)CC3)c2cc1OC
- GI50 [1]: 1.26 µM
- TGI [1]: 22.1 µM
- GI50 [2]: 2 µM
- TGI [2]: 20.7 µM
- GI50 [3]: 1.33 µM
- TGI [3]: 12.9 µM
- GI50 [4]: 2.14 µM
- TGI [4]: 6.75 µM
- GI50 [5]: 3.36 µM
- TGI [5]: 19.6 µM
- GI50 [6]: 3.19 µM
- TGI [6]: 16.9 µM
- GI50 [7]: 2.65 µM
- TGI [7]: 10.4 µM
- GI50 [8]: 1.49 µM
- TGI [8]: 3.28 µM
- GI50 [9]: 1.16 µM
- TGI [9]: 15.6 µM
- GI50 [10]: 1.89 µM
- TGI [10]: 4.95 µM
